#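 Cultured in 96-well plates, cells were exposed to test compound for 48 hours across five concentrations. Abbreviation: GI50, concentration required for 50% inhibition of growth.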 Activity calls are given as the source filed them. Cut-off read from the data, not from the text of the source: active = GI50 up to about 1.1 µM and inactive = higher.
# How the values were obtained:
# Assay in all cases: NCI-60 cell line screen, 48 h
# OVCAR-5 = test system: OVCAR-5
# A498 = test system: A498
# SF-295 = test system: SF-295
# HOP-92 = test system: HOP-92
# LOX IMVI = test system: LOX IMVI
# OVCAR-4 = test system: OVCAR-4
# A549 = test system: A549
# SN12C = test system: SN12C
# NCI-H460 = test system: NCI-H460
# HL-60 = test system: HL-60
# M14 = test system: M14
# HCT-116 = test system: HCT-116
# MDA-MB-435 = test system: MDA-MB-435
# OVCAR-3 = test system: OVCAR-3
# SK-OV-3 = test system: SK-OV-3
# K562 = test system: K562
# U-251 = test system: U-251
# IGROV-1 = test system: IGROV-1
# SNB-75 = test system: SNB-75
# OVCAR-8 = test system: OVCAR-8
SMILES,GI50 (OVCAR-5),GI50 (A498),GI50 (SF-295),GI50 (HOP-92),GI50 (LOX IMVI),GI50 (OVCAR-4),GI50 (A549),GI50 (SN12C),GI50 (NCI-H460),GI50 (HL-60),GI50 (M14),GI50 (HCT-116),GI50 (MDA-MB-435),GI50 (OVCAR-3),GI50 (SK-OV-3),GI50 (K562),GI50 (U-251),GI50 (IGROV-1),GI50 (SNB-75),GI50 (OVCAR-8)
O=C1C=CC(=O)c2c1ccc1c3ccccc3n(Cc3cccc([N+](=O)[O-])c3)c21,> 100 µM (inactive),58.3 µM (inactive),> 100 µM (inactive),20.1 µM (inactive),33.9 µM (inactive),23.8 µM (inactive),> 100 µM (inactive),21.8 µM (inactive),> 95.9 µM (inactive),6.9 µM (inactive),27.7 µM (inactive),24.5 µM (inactive),26.2 µM (inactive),17.1 µM (inactive),> 100 µM (inactive),6.92 µM (inactive),> 89.5 µM (inactive),22.9 µM (inactive),> 78.2 µM (inactive),30.4 µM (inactive)
O=C1C=CC(=O)c2cc(Sc3ccccc3)c(=O)ccc21,19.6 µM (inactive),16.2 µM (inactive),8.36 µM (inactive),10.4 µM (inactive),13.1 µM (inactive),11 µM (inactive),20.1 µM (inactive),16.2 µM (inactive),22 µM (inactive),0.877 µM (active),17.8 µM (inactive),18 µM (inactive),25.5 µM (inactive),16.9 µM (inactive),26 µM (inactive),2.49 µM (inactive),17 µM (inactive),18.5 µM (inactive),8.2 µM (inactive),15.7 µM (inactive)
O=C1CC(NC(=O)C(F)(F)F)c2c(Br)sc(N3CCC(c4ccccc4)CC3)c21 (stereo not given),> 100 µM (inactive),> 100 µM (inactive),4.48 µM (inactive),3.87 µM (inactive),7.85 µM (inactive),11.5 µM (inactive),32.8 µM (inactive),> 100 µM (inactive),13.7 µM (inactive),9.44 µM (inactive),> 100 µM (inactive),11.1 µM (inactive),> 100 µM (inactive),6.25 µM (inactive),64 µM (inactive),5.27 µM (inactive),6.76 µM (inactive),> 100 µM (inactive),69.3 µM (inactive),24.9 µM (inactive)
CN(C)C=O.O=C(Nc1nnn[nH]1)c1nc(O)cc(-c2ccccc2)n1,> 100 µM (inactive),> 100 µM (inactive),> 100 µM (inactive),> 100 µM (inactive),> 100 µM (inactive),> 100 µM (inactive),> 100 µM (inactive),> 100 µM (inactive),> 100 µM (inactive),> 100 µM (inactive),> 100 µM (inactive),> 100 µM (inactive),> 100 µM (inactive),> 100 µM (inactive),> 100 µM (inactive),> 100 µM (inactive),> 100 µM (inactive),> 100 µM (inactive),> 100 µM (inactive),> 100 µM (inactive)
COc1cc(C2c3cc4c(cc3OC3(OC)COC(=O)C23)OCO4)cc(OC)c1OC(C)=O (stereo not given),4.6 µM (inactive),3.27 µM (inactive),0.321 µM (active),51.2 µM (inactive),0.656 µM (active),> 57.8 µM (inactive),1.54 µM (inactive),3.93 µM (inactive),0.705 µM (active),1.23 µM (inactive),1.66 µM (inactive),0.785 µM (active),0.331 µM (active),1.3 µM (inactive),1.66 µM (inactive),1.04 µM (active),2.13 µM (inactive),2.21 µM (inactive),0.384 µM (active),2.52 µM (inactive)
COc1ccc(CCN2COc3ccc4ccc(=O)oc4c3C2)cc1OC,> 100 µM (inactive),> 100 µM (inactive),> 100 µM (inactive),21 µM (inactive),20.9 µM (inactive),> 100 µM (inactive),> 100 µM (inactive),> 100 µM (inactive),66.8 µM (inactive),19.1 µM (inactive),> 100 µM (inactive),66.5 µM (inactive),> 100 µM (inactive),> 100 µM (inactive),> 100 µM (inactive),50.4 µM (inactive),88.9 µM (inactive),> 100 µM (inactive),> 100 µM (inactive),> 100 µM (inactive)
CC(=O)OCC1OC(n2c3c(c(-c4ccco4)c(C#N)c2=S)CCCC3)C(OC(C)=O)C(OC(C)=O)C1OC(C)=O (stereo not given),> 31.6 µM (inactive),12.1 µM (inactive),13.7 µM (inactive),7.36 µM (inactive),> 31.6 µM (inactive),9.16 µM (inactive),30 µM (inactive),> 31.6 µM (inactive),22.9 µM (inactive),> 10 µM (inactive),> 100 µM (inactive),21.3 µM (inactive),> 100 µM (inactive),23.2 µM (inactive),> 10 µM (inactive),> 10 µM (inactive),> 10 µM (inactive),21.9 µM (inactive),8.2 µM (inactive),31.6 µM (inactive)
c1cc(-c2ccc(-c3nc4ccc(C5=NCCN5)cc4s3)s2)ccc1C1=NCCN1,0.444 µM (active),0.719 µM (active),0.301 µM (active),0.299 µM (active),0.262 µM (active),0.182 µM (active),0.166 µM (active),0.172 µM (active),0.286 µM (active),0.394 µM (active),0.912 µM (active),0.351 µM (active),0.841 µM (active),0.979 µM (active),0.711 µM (active),0.82 µM (active),0.222 µM (active),0.313 µM (active),0.222 µM (active),0.296 µM (active)
CCOC(=O)/C=C(/C(=O)OCC)n1ccc(=O)n(/C(=C/C(=O)OCC)C(=O)OCC)c1=O,17.1 µM (inactive),21.8 µM (inactive),25.6 µM (inactive),2.07 µM (inactive),5.19 µM (inactive),9.93 µM (inactive),17.3 µM (inactive),4.43 µM (inactive),17.3 µM (inactive),0.859 µM (active),4.98 µM (inactive),2.39 µM (inactive),8.34 µM (inactive),6.19 µM (inactive),23.6 µM (inactive),2.99 µM (inactive),14.6 µM (inactive),15.9 µM (inactive),16.9 µM (inactive),8.79 µM (inactive)
O=C1C(c2c(O)[nH]c3ccc(Br)cc23)=Nc2ccc(Br)cc21,> 100 µM (inactive),> 100 µM (inactive),> 100 µM (inactive),> 100 µM (inactive),62.1 µM (inactive),53.7 µM (inactive),32.7 µM (inactive),45.2 µM (inactive),37 µM (inactive),86.5 µM (inactive),97.9 µM (inactive),18 µM (inactive),40.7 µM (inactive),> 100 µM (inactive),28.9 µM (inactive),43.9 µM (inactive),18.7 µM (inactive),1.71 µM (inactive),19.7 µM (inactive),27.1 µM (inactive)
